Measurements taken from US7396851B2, “Heterocyclic and benzoheterocyclic polyamides structurally related to the natural antibiotic distamycin A for the treatment of β-thalassaemia” (priority 2001, dated 2008).
Structures can show the parent of a compound that is named as a salt.

Columns and labels:
human cell line K562 = assay: Erythroid differentiation of K562 cells (benzidine-positive cells); assay type: cell-based; conditions: mean±SD of five independent experiments
Experimental: The activity of the distamycin analogues described previously as inducers of erythroid cell differentiation was evaluated by studying the erythroid differentiation induced in human cell cultures.
The biological activity was evaluated by examining the capacity of those compounds to induce erythroid differentiation in the human cell line K562, which is capable of undergoing erythroid differentiation by expressing the genes for γ-globin if subjected to treatment with modifiers of the biological response that are suitable for the purpose (19-24). The level of differentiation was evaluated by analysing the positive reaction of the cells to benzidine (23). Some of the data obtained are given in Table 1, which represents the results of five independent experiments (mean±SD).

mRNA for γ-globin = assay: Expression of genes coding for γ-globins by RT-PCR / Northern blotting in K562 cells; assay type: cell-based, human; conditions: concentration 50 nM, quantitative RT-PCR, untreated control = 1
Experimental: The expression of genes coding for γ-globins was evaluated by RT-PCR (reverse transcriptase PCR) and Northern blotting (25). […] The evaluations were carried out after 6 days' induction with the indicated molecules.
The Technique used is that of quantitative RT-PCR (28, 29) using the following oligonucleotide primers and probe: γ-globin forward primer, 5′-TGGCAAGAAGGTGCTGACTTC-3′; γ-globin reverse primer, 5′-TCA CTC AGC TGG GCA AAG G-3′; probe γ-globin, 5′-FAM-TGGGAGATGCCATAAAGCACCTGG-TAMRA-3′(FAM=6-carboxy fluorescein, TAMRA=6-carboxy-N,N,N′,N′-tetramethylrhodamine).

Row | Compound | erythroid differentiation (%) = percentage of K562 cells that react positively to benzidine (human cell line K562; concentration 50 nM) | other results
1 | Cl.Cn1cc(NC(=O)c2cc(NC(=O)c3cc(NC(=O)c4ccc(N(CCCl)CCCl)cc4)cn3C)cn2C)cc1C(=O)NCCC(=N)N [Compound 1, 3-(1-methyl-4-(1-methyl-4-(1-methyl-4-(4-(N,N-bis(2-chloroethyl)amino)benzenecarboxamido)pyrrole-2-carboxamido)pyrrole-2-carboxamido)pyrrole-2-carboxamido)propionamidine hydrochloride] | 65.5 ± 8.8% | mRNA for γ-globin, increase compared with untreated control K562 cells (mRNA for γ-globin): 11.5 ± 2.5
2 | Cl.Cn1cc(NC(=O)c2cc(NC(=O)c3nc(NC(=O)c4ccc(N(CCCl)CCCl)cc4)cn3C)cn2C)cc1C(=O)NCCC(=N)N [Compound 2, 3-(1-methyl-4-(1-methyl-4-(1-methyl-4-(4-(N,N-bis(2-chloroethyl)amino)benzenecarboxamido)imidazole-2-carboxamido)pyrrole-2-carboxamido)pyrrole-2-carboxamido)propionamidine hydrochloride] | 85.2 ± 12.8% | 
3 | Cn1cc(NC(=O)c2cc(NC(=O)c3cc(NC(=O)c4cc5cc(N(CCCl)CCCl)ccc5o4)cn3C)cn2C)cc1C(=O)NCCC(=N)N [Compound 3, 3-(1-methyl-4-(1-methyl-4-(1-methyl-4-(5-N,N-bis(2-chloroethyl)aminobenzofurane-2-carboxamido)pyrrole-2-carboxamido)pyrrole-2-carboxamido)pyrrole-2-carboxamido)propionamidine hydrochloride] |  | erythroid differentiation (%) = percentage of K562 cells that react positively to benzidine (human cell line K562; concentration 100 nM): 72.4 ± 10.2%
4 | CN(C)CCCNC(=O)c1cc2cc(NC(=O)c3cc4cc(NC(=O)c5ccc(N(CCCl)CCCl)cc5)ccc4[nH]3)ccc2o1 [Compound 4, N-(3′-dimethylaminopropyl)-5-(5-(4-(bis(2-chloroethyl)amino)benzoylamino)-1H-indol-2-carboxamido)benzofurane-2-carboxamido hydrochloride] |  | erythroid differentiation (%) = percentage of K562 cells that react positively to benzidine (human cell line K562; concentration 500 nM): 30 ± 3.8%
5 | Cn1cc(NC(=O)c2cc(NC(=O)c3cc(N(CC4CO4)CC4CO4)cn3C)cn2C)cc1C(=O)NCC/C(N)=N/C#N (stereo not drawn) [Compound 5, 3-(1-methyl-4-(1-methyl-4-(1-methyl-4-(N,N-bis(2-oxiranylmethyl)amino)pyrrole-2-carboxamido)pyrrole-2-carboxamido)pyrrole-2-carboxamido)cyanopropionamidine hydrochloride] | 77 ± 10.1% | 
